Measured values as given in US8044082B2, “N-phenylacetamide inhibitors of the enzyme SOAT-1 and pharmaceutical/cosmetic compositions comprised thereof” (Galderma Research & Development, priority 2007, dated 2011).

system: not given; assay: not given; settings: not given

Structure (SMILES)	melting point [°C]
CC(C)c1cccc(C(C)C)c1NC(=O)CN1C(=O)N(c2ccc(F)cc2)C2(CCCCC2)C1=O [compound (I.7), N-(2,6-Diisopropylphenyl)-2-[1-(4-fluorophenyl)-2,4-dioxo-1,3-diazaspiro-[4.5]dec-3-yl]acetamide]	258
Cc1ccc(N2C(=O)N(CC(=O)Nc3c(C(C)C)cccc3C(C)C)C(=O)C23CCCC3)cc1 [compound (I.34), N-(2,6-Diisopropylphenyl)-2-(2,4-dioxo-1-p-tolyl-1,3-diazaspiro[4.4]non-3-yl)acetamide]	278
CCCCCCN1C(=O)N(CC(=O)Nc2c(C(C)C)cccc2C(C)C)C(=O)C12CCCCC2 [compound (I.35), N-(2,6-Diisopropylphenyl)-2-(1-hexyl-2,4-dioxo-1,3-diazaspiro[4.5]dec-3-yl)acetamide]	205
CCc1ccc(N2C(=O)N(CC(=O)Nc3c(C(C)C)cccc3C(C)C)C(=O)C23CCCCC3)cc1 [compound (I.36), N-(2,6-Diisopropylphenyl)-2-[1-(4-ethylphenyl)-2,4-dioxo-1,3-diazaspiro[4.5]dec-3-yl]acetamide]	221
CCc1ccc(N2C(=O)N(CC(=O)Nc3c(C(C)C)cccc3C(C)C)C(=O)C23CCCC3)cc1 [compound (I.37), N-(2,6-Diisopropylphenyl)-2-[1-(4-ethylphenyl)-2,4-dioxo-1,3-diazaspiro[4.4]non-3-yl]acetamide]	246
CCCCc1ccc(N2C(=O)N(CC(=O)Nc3c(C(C)C)cccc3C(C)C)C(=O)C23CCCCC3)cc1 [compound (I.38), 2-[1-(4-Butylphenyl)-2,4-dioxo-1,3-diazaspiro[4.5]dec-3-yl]-N-(2,6-diisopropylphenyl)acetamide]	220
CCCCc1ccc(N2C(=O)N(CC(=O)Nc3c(C(C)C)cccc3C(C)C)C(=O)C23CCCC3)cc1 [compound (I.40), 2-[1-(4-Butylphenyl)-2,4-dioxo-1,3-diazaspiro[4.4]non-3-yl]-N-(2,6-diisopropylphenyl)acetamide]	228
CC(C)c1cccc(C(C)C)c1NC(=O)CN1C(=O)N(c2ccc(OCc3ccccc3)cc2)C2(CCCC2)C1=O [compound (I.41), 2-[1-(4-Benzyloxyphenyl)-2,4-dioxo-1,3-diazaspiro[4.4]non-3-yl]-N-(2,6-di-isopropylphenyl)acetamide]	232
CC(C)c1cccc(C(C)C)c1NC(=O)CN1C(=O)N(c2ccc(CO)cc2)C2(CCCCC2)C1=O [compound (I.42), N-(2,6-Diisopropylphenyl)-2-[1-(4-hydroxymethylphenyl)-2,4-dioxo-1,3-diazaspiro[4.5]dec-3-yl]acetamide]	230
CCCCCCCCCN1C(=O)N(CC(=O)Nc2c(C(C)C)cccc2C(C)C)C(=O)C12CCCCC2 [compound (I.43), N-(2,6-Diisopropylphenyl)-2-(1-nonyl-2,4-dioxo-1,3-diazaspiro[4.5]dec-3-yl)acetamide]	183
CCCCCCCCN1C(=O)N(CC(=O)Nc2c(C(C)C)cccc2C(C)C)C(=O)C12CCCCC2 [compound (I.44), N-(2,6-Diisopropylphenyl)-2-(1-octyl-2,4-dioxo-1,3-diazaspiro[4.5]dec-3-yl)acetamide]	202
Cc1ccc(N2C(=O)N(CC(=O)Nc3c(C)cc(C)cc3C)C(=O)C23CCCCC3)cc1 [compound (I.45), 2-(2,4-Dioxo-1-p-tolyl-1,3-diazaspiro[4.5]dec-3-yl)-N-(2,4,6-trimethylphenyl)acetamide]	266
Cc1ccc(N2C(=O)N(CC(=O)Nc3c(C)cccc3C(C)C)C(=O)C23CCCCC3)cc1 [compound (I.47), 2-(2,4-Dioxo-1-p-tolyl-1,3-diazaspiro[4.5]dec-3-yl)-N-(2-isopropyl-6-methylphenyl)acetamide]	195
CCc1cccc(CC)c1NC(=O)CN1C(=O)N(c2ccc(C)cc2)C2(CCCCC2)C1=O [compound (I.48), N-(2,6-Diethylphenyl)-2-(2,4-dioxo-1-p-tolyl-1,3-diazaspiro[4.5]dec-3-yl)-acetamide]	214
CCc1cc(C)cc(CC)c1NC(=O)CN1C(=O)N(c2ccc(C)cc2)C2(CCCCC2)C1=O [compound (I.49), N-(2,6-Diethyl-4-methylphenyl)-2-(2,4-dioxo-1-p-tolyl-1,3-diazaspiro[4.5]dec-3-yl)acetamide]	223

Now from value to molecule:

melting point [°C]	Structure (SMILES)
248	Cc1ccc(N2C(=O)N(CC(=O)Nc3c(C)cc(C)cc3Cl)C(=O)C23CCCCC3)cc1 [compound (I.50), N-(2-Chloro-4,6-dimethylphenyl)-2-(2,4-dioxo-1-p-tolyl-1,3-diazaspiro[4.5]dec-3-yl)acetamide]
178	CCc1cccc(CC)c1NC(=O)CN1C(=O)N(CCc2ccccc2)C2(CCCCC2)C1=O [compound (I.51), N-(2,6-Diethylphenyl)-2-(2,4-dioxo-1-phenethyl-1,3-diazaspiro[4.5]dec-3-yl)acetamide]
120	Cc1ccc(N2C(=O)N(CC(=O)Nc3c(C)cccc3C(C)(C)C)C(=O)C23CCCCC3)cc1 [compound (I.53), N-(2-tert-Butyl-6-methylphenyl)-2-(2,4-dioxo-1-p-tolyl-1,3-diazaspiro[4.5]dec-3-yl)acetamide]
188	CCc1ccc(N2C(=O)N(CC(=O)Nc3c(CC)cccc3CC)C(=O)C23CCCCC3)cc1 [compound (I.54), N-(2,6-Diethylphenyl)-2-[1-(4-ethylphenyl)-2,4-dioxo-1,3-diazaspiro[4.5]dec-3-yl]acetamide]
222	CCCN1C(=O)N(CC(=O)Nc2c(CC)cccc2CC)C(=O)C12CCCCC2 [compound (I.55), N-(2,6-Diethylphenyl)-2-(2,4-dioxo-1-propyl-1,3-diazaspiro[4.5]dec-3-yl)acetamide]
171	CCCCc1ccc(N2C(=O)N(CC(=O)Nc3c(CC)cccc3CC)C(=O)C23CCCCC3)cc1 [compound (I.56), 2-[1-(4-Butylphenyl)-2,4-dioxo-1,3-diazaspiro[4.5]dec-3-yl]-N-(2,6-diethyl-phenyl)acetamide]
191	CCc1ccc(N2C(=O)N(CC(=O)Nc3c(CC)cccc3CC)C(=O)C23CCCC3)cc1 [compound (I.57), N-(2,6-Diethylphenyl)-2-[1-(4-ethylphenyl)-2,4-dioxo-1,3-diazaspiro[4.4]non-3-yl]acetamide]
126	CCCCCCCN1C(=O)N(CC(=O)Nc2c(CC)cccc2CC)C(=O)C12CCCCC2 [compound (I.58), N-(2,6-Diethylphenyl)-2-(1-heptyl-2,4-dioxo-1,3-diazaspiro[4.5]dec-3-yl)acetamide]
209	CCc1cccc(CC)c1NC(=O)CN1C(=O)N(CC(C)C)C2(CCCCC2)C1=O [compound (I.59), N-(2,6-Diethylphenyl)-2-(1-isobutyl-2,4-dioxo-1,3-diazaspiro[4.5]dec-3-yl)acetamide]
118	CC(C)c1cccc(C(C)C)c1NC(=O)CN1C(=O)N(c2ccc(OCc3ccccc3)cc2)C2(CCCCC2)C1=O [compound (I.60), 2-[1-(4-Benzyloxyphenyl)-2,4-dioxo-1,3-diazaspiro[4.5]dec-3-yl]-N-(2,6-di-isopropylphenyl)acetamide]
184	CCc1cccc(CC)c1NC(=O)CN1C(=O)N(c2ccc(OCc3ccccc3)cc2)C2(CCCCC2)C1=O [compound (I.62), 2-[1-(4-Benzyloxyphenyl)-2,4-dioxo-1,3-diazaspiro[4.5]dec-3-yl]-N-(2,6-di-ethylphenyl)acetamide]
179	CCc1cccc(CC)c1NC(=O)CN1C(=O)N(Cc2ccccc2)C2(CCCCC2)C1=O [compound (I.63), 2-(1-Benzyl-2,4-dioxo-1,3-diazaspiro[4.5]dec-3-yl)-N-(2,6-diethylphenyl)-acetamide]

biological target: T1, enzyme ACAT-1 (Homo sapiens, UniProt P35610); assay: ACAT-1 (SOAT-1) inhibition test in HepG2 cells with NBD-cholesterol fluorescence; type: cell-based; settings: NBD-cholesterol 1 μg/ml, incubation 6 h at 37° C., fluorescence excitation 490 nm / emission 540 nm
T1 sequence (P35610 1-550): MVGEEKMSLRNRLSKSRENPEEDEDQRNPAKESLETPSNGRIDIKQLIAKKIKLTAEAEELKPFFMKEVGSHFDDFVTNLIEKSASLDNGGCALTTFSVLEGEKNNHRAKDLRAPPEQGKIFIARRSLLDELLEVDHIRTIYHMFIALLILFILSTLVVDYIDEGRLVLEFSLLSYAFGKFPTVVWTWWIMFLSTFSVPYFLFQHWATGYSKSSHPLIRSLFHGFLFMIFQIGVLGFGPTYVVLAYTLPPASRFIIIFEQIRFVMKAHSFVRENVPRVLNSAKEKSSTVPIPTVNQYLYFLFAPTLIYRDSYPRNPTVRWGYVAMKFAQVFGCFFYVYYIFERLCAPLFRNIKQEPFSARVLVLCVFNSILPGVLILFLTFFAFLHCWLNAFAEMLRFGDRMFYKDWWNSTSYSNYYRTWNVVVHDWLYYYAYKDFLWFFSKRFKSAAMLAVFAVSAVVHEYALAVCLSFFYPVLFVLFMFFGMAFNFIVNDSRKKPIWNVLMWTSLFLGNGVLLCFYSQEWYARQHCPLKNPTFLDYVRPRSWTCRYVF
Description: The compounds (I) according to the invention, as well as their pharmaceutically acceptable salts, solvates and/or hydrates, have inhibitory properties on the enzyme SOAT-1. This inhibitory activity on the enzyme SOAT-1 is measured according to a primary enzymatic test HepG2, as described in Example 64.
The compounds of formula (I) according to the invention have been subjected to a test allowing their inhibitory action with respect to the enzyme ACAT-1 to be evaluated inspired by the following publication: “Identification of ACAT1- and ACAT2-specific inhibitors using a novel, cell-based fluorescence assay: individual ACAT uniqueness”, J. Lipid Res. (2004) vol. 45, pages 378-386.
The principle of this test is based on the employment of NBD-cholesterol, an analogue of cholesterol whose fluorescence depends on its environment. When this is present in a polar environment, it is weakly fluorescent although in a nonpolar environment it is strongly fluorescent. Free NBD-cholesterol locates itself in the cell membranes and is weakly fluorescent in this polar environment. When the NBD-cholesterol is esterified by ACAT, the ester of NBD-cholesterol locates itself in the nonpolar lipid droplets and is in that case strongly fluorescent.
The method below is applied: The HepG2 cells are incubated in the presence of NBD-cholesterol (1 μg/ml) and of the compound of formula (I) to be tested in black 96-well plates with a transparent base at a rate of 30 000 cells per well. After incubation for 6 h at 37° C., under 5% CO2, the medium is eliminated by turning over and the cells are washed with 2 times 100 μl of PBS. After addition of 50 μl of lysis buffer (NaPO4 10 mM, Igepal 1%), the plates are stirred for 5 min and read in fluorescence (excitation 490 nm, emission 540 nm) on a FUSION apparatus (Perkin-Elmer).

IC50 [nM]	Structure (SMILES)
3.2	CC(C)c1cccc(C(C)C)c1NC(=O)CN1C(=O)N(c2ccccc2)C2(CCCC2)C1=O [compound (I.1), N-(2,6-Diisopropylphenyl)-2-(2,4-dioxo-1-phenyl-1,3-diazaspiro[4.4]non-3-yl)acetamide]
0.8	CC(C)c1cccc(C(C)C)c1NC(=O)CN1C(=O)N(c2ccc(F)cc2)C2(CCCCC2)C1=O [compound (I.7), N-(2,6-Diisopropylphenyl)-2-[1-(4-fluorophenyl)-2,4-dioxo-1,3-diazaspiro-[4.5]dec-3-yl]acetamide]
